Columns and labels:
[1] = test system: MV4-11 cells; test: MV4-11 cellular proliferative assay, Assay Format A (CellTiter-Glo, 120 h); assay type: cell-based; settings: Homo sapiens, Assay format A, 120 h, read-out: IC50 (MV4-11 cellular proliferative assay)
Protocol: An MV4-11 proliferation assay was used to test the ability of compounds to reduce cell viability. MV4-11 cells (ATCC #CRL9591) were grown in IMDM medium (11510596, Gibco) supplemented with 10% fetal bovine serum (F7524, Gibco) and 1% Penicillin/Streptomycin (15140-122, Gibco) at 37° C. with 5% CO2. Cells were seeded in 384-well Elplasia plates (4447, Corning) at a density of 50 cells/well and treated with vehicle (DMSO) or compounds (10 serial semi-log dilutions, 30 μM as top concentration).
After 120 hours of treatment, cells were incubated for 10 min at RT with the CellTiter-Glo (CTG) reagent (G7571, Promega). Measurement of the luminescence signal was performed on a microplate reader (Ensight, PerkinElmer). CTG reagent measures the amount of ATP, which is directly proportional to the number of cells, to determine the number of viable cells in culture.
The data were analysed as follows:
[formula] • where x is the measured raw signal value of a well, (cr) is the median of the measured signal values for the Central Reference (DMSO) wells on a plate, (sr) is the median of the measured signal values for the Scale Reference (reference compound) wells on a plate.
[formula] • where the experimental set-up assumes the Hill parameters in certain ranges: S0~Central Reference (CR) from normalization (=Bottom), Sinf~Scale Reference (SR) from normalization (=Top), nHill ~1, AC50~within the measured concentration range.

[2] = molecular target: T1, MLLT1 (Homo sapiens, UniProt Q03111); test: MLLT1 degradation assay in MV4-11 cells (JESS, 24 h); assay type: cell-based; set-up: endogenous in cells; host or cells: MV4-11 (ATCC CRL-9591); settings: vs DMSO control
T1 sequence (Q03111 1-559): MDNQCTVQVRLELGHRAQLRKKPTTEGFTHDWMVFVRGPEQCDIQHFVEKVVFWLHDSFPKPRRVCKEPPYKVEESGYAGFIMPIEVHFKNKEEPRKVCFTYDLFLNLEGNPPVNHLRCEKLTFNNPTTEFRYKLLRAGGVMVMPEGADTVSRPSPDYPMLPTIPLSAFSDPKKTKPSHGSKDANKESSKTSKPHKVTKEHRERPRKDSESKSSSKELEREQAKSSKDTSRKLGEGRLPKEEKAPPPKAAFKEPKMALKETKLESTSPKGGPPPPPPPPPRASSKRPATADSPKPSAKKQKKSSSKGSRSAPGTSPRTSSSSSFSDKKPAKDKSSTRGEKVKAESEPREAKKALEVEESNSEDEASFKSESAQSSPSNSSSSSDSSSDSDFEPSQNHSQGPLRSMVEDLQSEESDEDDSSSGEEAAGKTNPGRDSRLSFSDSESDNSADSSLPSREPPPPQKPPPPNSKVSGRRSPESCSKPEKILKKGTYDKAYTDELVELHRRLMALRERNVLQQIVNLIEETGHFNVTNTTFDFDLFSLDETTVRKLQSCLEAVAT
Protocol: MLLT1 degradation efficacy of compounds was tested in an automated chemiluminescent detection system (JESS, Cat #004-650). MV4-11 (#CRL-9591, ATCC) cells were seeded at a density of 1.2 million cells/well in a non-treated 6-well cell culture plate in 2.4 mL of complete medium (IMDM+10% FBS+1× Penicillin-Streptomycin). 10 mM DMSO stocks were prepared, and cells were treated with three concentrations of test compounds viz. 1000, 100 and 10 nM at a final DMSO concentration of 0.1% and incubated for 24 h at 37° C., 5% CO2. Post incubation, cells were centrifuged, washed with HBSS and lysed in 70 μL of RIPA buffer supplemented with Protease inhibitors (sc-24948; Santa Cruz). Subsequently, protein estimation was done using BCA protein assay kit (23225; Pierce). 4 ug protein lysate (4 uL of 1 ug/uL lysate) was loaded into each well of the JESS cartridge (SM-W001; Bio-techne) and the JESS run was performed using 1:900 dilution of anti-human MLLT1 antibody (14893; Cell signaling technology) and 1:1200 dilution of anti-human GAPDH antibody (2118; Cell signaling technology) with anti-rabbit secondary detection module (DM-001; Bio-Techne). Post run, data were analysed using “Compass for SW” software for chemiluminescent detection. The peak area for each band was used for the calculation of MLLT1 degradation with respect to DMSO control. Data is shown as “MLLT1% degradation”. • Category A: A≥75% degradation • Category B: 50%≤B<75% degradation • Category C: 25%≤C<50% degradation • Category D: D<25% degradation

IC50 [1] [µM] | MLLT1% Degradation @ 0.01 μM [2] | MLLT1% Degradation @ 0.1 μM [2] | MLLT1% Degradation @ 1 μM [2] | SMILES
< 0.1 | A (Category A: A≥75% degradation) | A (Category A: A≥75% degradation) | A (Category A: A≥75% degradation) | Cc1nn(CCCCCCCCNc2cccc3c2CN(C2CCC(=O)NC2=O)C3=O)c2cc(C(=O)Nc3cc4[nH]c([C@H]5CCCN5C)cc4cn3)ccc12 (stereo partly drawn) [Example 16, 1-(8-{[2-(2,6-dioxopiperidin-3-yl)-1-oxo-3H-isoindol-4-yl]amino}octyl)-3-methyl-N-{2-[(2R)-1-methylpyrrolidin-2-yl]-1H-pyrrolo[3,2-c]pyridin-6-yl}indazole-6-carboxamide]
< 0.1 | B (Category B: 50%≤B<75% degradation) | A (Category A: A≥75% degradation) | B (Category B: 50%≤B<75% degradation) | Cc1nn(CCCC#Cc2cccc3c2CN(C2CCC(=O)NC2=O)C3=O)c2cc(C(=O)Nc3cc4[nH]c([C@H]5CCCN5C)cc4cn3)ccc12 (stereo partly drawn) [Example 32, 1-(5-(2-(2,6-dioxopiperidin-3-yl)-1-oxoisoindolin-4-yl)pent-4-yn-1-yl)-3-methyl-N-(2-((R)-1-methylpyrrolidin-2-yl)-1H-pyrrolo[3,2-c]pyridin-6-yl)-1H-indazole-6-carboxamide]
< 0.1 |  |  |  | Cc1nn(CCCCN2CCN(c3ccc4c(c3)C(=O)N(C3CCC(=O)NC3=O)C4=O)CC2)c2cc(C(=O)Nc3cc4[nH]c([C@H]5CCCN5C)cc4cn3)ccc12 (stereo partly drawn) [Example 19, 1-(4-{4-[2-(2,6-dioxopiperidin-3-yl)-1,3-dioxoisoindol-5-yl]piperazin-1-yl}butyl)-3-methyl-N-{2-[(2R)-1-methylpyrrolidin-2-yl]-1H-pyrrolo[3,2-c]pyridin-6-yl}indazole-6-carboxamide]
< 0.1 |  |  |  | Cc1nn(CCCCCCCCOc2ccc3c(c2)C(=O)N(C2CCC(=O)NC2=O)C3=O)c2cc(C(=O)Nc3cc4[nH]c([C@H]5CCCN5C)cc4cn3)ccc12 (stereo partly drawn) [Example 8, 1-(8-{[2-(2,6-dioxopiperidin-3-yl)-1,3-dioxoisoindol-5-yl]oxy}octyl)-3-methyl-N-{2-[(2R)-1-methylpyrrolidin-2-yl]-1H-pyrrolo[3,2-c]pyridin-6-yl}indazole-6-carboxamide]
< 0.1 |  |  |  | Cc1nn(CCCNc2cccc3c2C(=O)N(C2CCC(=O)NC2=O)C3=O)c2cc(C(=O)Nc3cc4[nH]c([C@H]5CCCN5C)cc4cn3)ccc12 (stereo partly drawn) [Example 13, 1-(3-((2-(2,6-dioxopiperidin-3-yl)-1,3-dioxoisoindolin-4-yl)amino)propyl)-3-methyl-N-(2-((R)-1-methylpyrrolidin-2-yl)-1H-pyrrolo[3,2-c]pyridin-6-yl)-1H-indazole-6-carboxamide]
< 0.1 |  |  |  | Cc1nn(CCCCCCCCOc2cccc3c2C(=O)N(C2CCC(=O)NC2=O)C3=O)c2cc(C(=O)Nc3cc4[nH]c([C@H]5CCCN5C)cc4cn3)ccc12 (stereo partly drawn) [Example 12, 1-(8-((2-(2,6-dioxopiperidin-3-yl)-1,3-dioxoisoindolin-4-yl)oxy)octyl)-3-methyl-N-(2-((R)-1-methylpyrrolidin-2-yl)-1H-pyrrolo[3,2-c]pyridin-6-yl)-1H-indazole-6-carboxamide]
< 0.1 |  |  |  | Cc1nn(CCCCCCCCNc2ccc3c(c2)C(=O)N(C2CCC(=O)NC2=O)C3=O)c2cc(C(=O)Nc3cc4[nH]c([C@H]5CCCN5C)cc4cn3)ccc12 (stereo partly drawn) [Example 14, 1-(8-{[2-(2,6-dioxopiperidin-3-yl)-1,3-dioxoisoindol-5-yl]amino}octyl)-3-methyl-N-{2-[(2R)-1-methylpyrrolidin-2-yl]-1H-pyrrolo[3,2-c]pyridin-6-yl}indazole-6-carboxamide]
< 0.1 |  |  |  | Cc1nn(CCCCCCCCNc2cccc3c2CN(C2CCC(=O)NC2=O)C3=O)c2cc(C(=O)Nc3cc4[nH]c([C@@H]5CCCN5C)cc4cn3)ccc12 (stereo partly drawn) [Example 17, 1-(8-{[2-(2,6-dioxopiperidin-3-yl)-1-oxo-3H-isoindol-4-yl]amino}octyl)-3-methyl-N-{2-[(2S)-1-methylpyrrolidin-2-yl]-1H-pyrrolo[3,2-c]pyridin-6-yl}indazole-6-carboxamide]
 | C (Category C: 25%≤C<50% degradation) | C (Category C: 25%≤C<50% degradation) | C (Category C: 25%≤C<50% degradation) | Cc1c(OCCCCCCn2nc(C)c3ccc(C(=O)Nc4cc5[nH]c([C@H]6CCCN6C)cc5cn4)cc32)cccc1N1CCC(=O)NC1=O [Example 10, 1-{6-[3-(2,4-dioxo-1,3-diazinan-1-yl)-2-methylphenoxy]hexyl}-3-methyl-N-{2-[(2R)-1-methylpyrrolidin-2-yl]-1H-pyrrolo[3,2-c]pyridin-6-yl}indazole-6-carboxamide]
 | A (Category A: A≥75% degradation) | A (Category A: A≥75% degradation) | A (Category A: A≥75% degradation) | Cc1nn(CCCCCOCC#Cc2cccc3c2CN(C2CCC(=O)NC2=O)C3=O)c2cc(C(=O)Nc3cc4[nH]c([C@H]5CCCN5C)cc4cn3)ccc12 (stereo partly drawn) [Example 49, 1-(5-((3-(2-(2,6-dioxopiperidin-3-yl)-1-oxoisoindolin-4-yl)prop-2-yn-1-yl)oxy)pentyl)-3-methyl-N-(2-((R)-1-methylpyrrolidin-2-yl)-1H-pyrrolo[3,2-c]pyridin-6-yl)-1H-indazole-6-carboxamide]
 | D (Category D: D<25% degradation) | B (Category B: 50%≤B<75% degradation) | A (Category A: A≥75% degradation) | Cc1nn(CCCCCCCC#Cc2cccc(N3CCC(=O)NC3=O)c2F)c2cc(C(=O)Nc3cc4[nH]c([C@H]5CCCN5C)cc4cn3)ccc12 [Example 63, (R)-1-(9-(3-(2,4-dioxotetrahydropyrimidin-1 (2H)-yl)-2-fluorophenyl)non-8-yn-1-yl)-3-methyl-N-(2-(1-methylpyrrolidin-2-yl)-1H-pyrrolo [3,2-c]pyridin-6-yl)-1H-indazole-6-carboxamide]
 | B (Category B: 50%≤B<75% degradation) | B (Category B: 50%≤B<75% degradation) | C (Category C: 25%≤C<50% degradation) | Cc1c2ccc(C(=O)Nc3cc4[nH]c([C@H]5CCCN5C)cc4cn3)cc2nn1CCCCCCCCNc1cccc2c1C(=O)N(C1CCC(=O)NC1=O)C2=O (stereo partly drawn) [Example 5, 2-(8-((2-(2,6-dioxopiperidin-3-yl)-1,3-dioxoisoindolin-4-yl)amino)octyl)-3-methyl-N-(2-((R)-1-methylpyrrolidin-2-yl)-1H-pyrrolo[3,2-c]pyridin-6-yl)-2H-indazole-6-carboxamide]
< 0.1 |  |  |  | Cc1nn(C2CCN(CCCNc3cccc4c3C(=O)N(C3CCC(=O)NC3=O)C4=O)CC2)c2cc(C(=O)Nc3cc4[nH]c([C@H]5CCCN5C)cc4cn3)ccc12 (stereo partly drawn) [Example 7, 1-[1-(3-{[2-(2,6-dioxopiperidin-3-yl)-1,3-dioxoisoindol-4-yl]amino}propyl)piperidin-4-yl]-3-methyl-N-{2-[(2R)-1-methylpyrrolidin-2-yl]-1H-pyrrolo[3,2-c]pyridin-6-yl}indazole-6-carboxamide]
